Results as given in US11957680B2, “Pyruvate kinase activators for use in treating blood disorders” (Agios Pharmaceuticals, Inc., priority 2017, dated 2024).

How the values were obtained:
wild type PKR [1] = biological target: T1, wild type PKR (Homo sapiens, UniProt P30613); test: PKR (wild type) enzyme AC50 assay, LDH/NADH-coupled, absorbance at 340 nm; assay type: biochemical; details: for PKR WT AC50 / AC50: Table 2, enzyme assay; for AC50: read-out: PKR WT AC50; for EC50: read-out: PKR WT
In short: (§1)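 Enzyme amount (40-400 ng/well) and substrate levels vary by PKR variant. The coupled read-out uses LDH (0.5 units) consuming NADH, tracked at 340 nm at room temperature after ADP initiation, following a one-hour compound preincubation.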

wild type PKR [2] = biological target: T1, wild type PKR; test: Cell based ATP assay in purified red blood cells (Cell-Titer-Glo); design: endogenous in cells; host or cells: purified red blood cells from healthy volunteers; details: overnight at 37° C., ATP levels; for EC50 / Cell based ATP assay: Table 4, AC50, RBCs
In short: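 RBCs from healthy human donors' K2EDTA blood were leukocyte-depleted by filtration and resuspended in AGAM (PBS, 1% glucose, adenine, mannitol). Cells at 1×10^7 cells/mL were incubated overnight at 37 °C with serially diluted compound at 0.1% DMSO, and ATP was read by Cell-Titer-Glo luminescence.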

PKR R510Q = PKR R510Q (Homo sapiens, UniProt P30613, R510Q); test: PKR mutant assay (R510Q), AC50, LDH/NADH-coupled, absorbance at 340 nm; assay type: biochemical; details: for PK R510Q AC50 / AC50: Table 2, enzyme assay; for AC50: read-out: PK R510Q AC50; for EC50: read-out: PK R510Q
In short: as §1

PKR K410E = PKR K410E (Homo sapiens, UniProt P30613, K410E); test: PKR mutant assay (K410E), AC50, LDH/NADH-coupled, absorbance at 340 nm; assay type: biochemical; details: for EC50: Table 4, AC50, enzyme assay
In short: as §1

Sequence of PKR K410E (P30613 whole entry K410E): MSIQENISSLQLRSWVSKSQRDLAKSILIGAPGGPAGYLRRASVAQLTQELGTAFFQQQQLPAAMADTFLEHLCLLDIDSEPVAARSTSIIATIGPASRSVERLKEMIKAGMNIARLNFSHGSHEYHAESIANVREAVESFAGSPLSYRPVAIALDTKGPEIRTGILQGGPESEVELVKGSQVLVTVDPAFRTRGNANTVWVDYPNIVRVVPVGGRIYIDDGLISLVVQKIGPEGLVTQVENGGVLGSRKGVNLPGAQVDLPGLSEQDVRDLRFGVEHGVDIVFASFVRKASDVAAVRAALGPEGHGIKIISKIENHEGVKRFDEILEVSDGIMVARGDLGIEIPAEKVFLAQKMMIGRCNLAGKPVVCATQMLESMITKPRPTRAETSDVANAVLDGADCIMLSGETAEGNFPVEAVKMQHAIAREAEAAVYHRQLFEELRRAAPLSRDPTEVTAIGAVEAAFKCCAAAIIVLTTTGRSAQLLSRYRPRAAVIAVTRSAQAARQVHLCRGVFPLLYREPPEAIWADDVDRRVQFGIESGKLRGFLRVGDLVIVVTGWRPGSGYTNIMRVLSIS
T1 sequence (P30613 whole entry): as the sequence (P30613 whole entry K410E) above, with E410K counted along it
Sequence of PKR R510Q (P30613 whole entry R510Q): as the sequence (P30613 whole entry K410E) above, with E410K, R510Q counted along it

Compound | AC50 (wild type PKR [2]; Table 2, RBCs) [nM] | AC50 (PKR K410E; Table 2, enzyme assay) [nM] | AC50 (wild type PKR [1]) [nM] | AC50 (PKR R510Q) [nM] | EC50 (wild type PKR [1]; Table 4, AC50, enzyme assay) [nM] | EC50 (wild type PKR [2]) [nM] | EC50 (PKR R510Q; Table 4, AC50, enzyme assay) [nM] | EC50 (PKR K410E) [nM] | further results
Cn1c2nc([S+](C)[O-])sc2c2cnn(Cc3ccc(C(N)=O)cc3)c(=O)c21 (stereo not drawn) [Compound 98] | > 1000 | > 800 |  |  |  |  |  |  | PKR WT AC50 (wild type PKR [1]): No Fit; PK R510Q AC50 (PKR R510Q): No Fit
COc1cccc(Cn2ncc3c4sc(C(F)(F)F)nc4n(C)c3c2=O)c1 [Compound 53] | > 1000 | < 300 | < 300 | < 300 |  |  |  |  | 
Cn1c2nc(S(C)(=O)=O)sc2c2cnn(Cc3cccc4[nH]ncc34)c(=O)c21 [Compound 92] | ≤ 1000 | 301 to 800 | < 300 | 301 to 800 |  |  |  |  | 
CN(c1csc(Cc2cnc(=O)[nH]c2)n1)c1ccnn(Cc2cccc3[nH]ncc23)c1=O [Compound 208] |  |  |  |  | > 800 | > 1000 | > 800 | > 800 | 
COC(=O)C(c1ccccc1)c1nc2c(s1)c1cnn(Cc3cccc4[nH]ncc34)c(=O)c1n2C (stereo not drawn) [Compound 134] | > 1000 | < 300 | > 800 | 301 to 800 |  |  |  |  | 
Cc1nc2c(s1)c1cnn(Cc3cccc(F)n3)c(=O)c1n2C [Compound 28] | > 1000 | > 800 | > 800 | > 800 |  |  |  |  | 
Cn1ccc(Cn2ncc3c4sc(Cc5cccc6cn[nH]c56)nc4n(C)c3c2=O)n1 [Compound 258] |  |  |  |  | < 300 | ≤ 1000 | < 300 | < 300 | 
C=Cc1nc2c(s1)c1cnn(Cc3cccc(OC)c3)c(=O)c1n2C [Compound 37] | > 1000 | > 800 | 301 to 800 | < 300 |  |  |  |  | 
Cn1c2nc(S(=O)(=O)Cc3ccccc3)sc2c2cnn(Cc3cccc4[nH]ncc34)c(=O)c21 [Compound 128] | > 1000 | 301 to 800 | < 300 | 301 to 800 |  |  |  |  | 
Cc1nc2c(s1)c1cnn(Cc3ccc4nn[nH]c4c3)c(=O)c1n2C [Compound 20] | > 1000 | > 800 | > 800 | > 800 |  |  |  |  | 
Cn1c2nc(-n3cnc(CS(=O)(=O)c4ccccc4)c3)sc2c2cnn(Cc3cccc4[nH]ncc34)c(=O)c21 [Compound 187] |  |  |  |  |  |  |  | > 800 | PKR WT (wild type PKR [1]; Table 4, AC50, enzyme assay): No Fit; Cell based ATP assay (wild type PKR [2]): No Fit; PK R510Q (PKR R510Q; Table 4, AC50, enzyme assay): No Fit
Cc1nc2c(s1)c1cnn(Cc3ccc(CO)cc3)c(=O)c1n2C [Compound 44] | > 1000 | > 800 | > 800 | > 800 |  |  |  |  | 
CC(=O)c1cccc(CC(c2cc[nH]n2)c2nc3c(s2)c2cnn(Cc4cccc(C(C)=O)c4)c(=O)c2n3C)c1 (stereo not drawn) [Compound 192] |  |  |  |  | > 800 | > 1000 | > 800 | > 800 | 
Cn1c2nc(Cc3ccc(C(N)=O)cc3)sc2c2cnn(Cc3cccc4[nH]ncc34)c(=O)c21 [Compound 112] | > 1000 | > 800 | > 800 | > 800 |  |  |  |  | 
Cn1c2nc(Cc3c[nH]nn3)sc2c2cnn(Cc3cccc(OC(F)(F)F)c3)c(=O)c21 [Compound 290] |  |  |  |  | < 300 | ≤ 1000 | < 300 | < 300 | 
Cn1c2nc(Cc3cc[nH]n3)sc2c2cnn(Cc3cccc4c3CNC4)c(=O)c21 [Compound 253] |  |  |  |  | < 300 | ≤ 1000 | < 300 | < 300 | 
Cn1c2nc(CO)sc2c2cnn(Cc3cccc4[nH]ncc34)c(=O)c21 [Compound 105] | ≤ 1000 | < 300 | < 300 | < 300 |  |  |  |  | 
CSc1nc2c(s1)c1cnn(Cc3cnc(=O)[nH]c3)c(=O)c1n2C [Compound 95] |  |  |  |  |  |  |  |  | PKR WT AC50 (wild type PKR [1]): No Fit; Cell based ATP assay AC50 (wild type PKR [2]; Table 2, RBCs): No Fit; PK R510Q AC50 (PKR R510Q): No Fit; PKR K410E AC50 (PKR K410E; Table 2, enzyme assay): No Fit

Compound | AC50 (wild type PKR [2]; Table 2, RBCs) [nM] | AC50 (PKR K410E; Table 2, enzyme assay) [nM] | AC50 (wild type PKR [1]) [nM] | AC50 (PKR R510Q) [nM] | EC50 (wild type PKR [1]; Table 4, AC50, enzyme assay) [nM] | EC50 (wild type PKR [2]) [nM] | EC50 (PKR R510Q; Table 4, AC50, enzyme assay) [nM] | EC50 (PKR K410E) [nM] | further results
Cn1c2nc(Cc3ccccn3)sc2c2cnn(Cc3ccccc3)c(=O)c21 [Compound 263] |  |  |  |  | < 300 | ≤ 1000 | < 300 | < 300 | 
Cn1c2nc(Cc3cnn[nH]3)sc2c2cnn(Cc3cccc4[nH]ncc34)c(=O)c21 [Compound 217] |  |  |  |  | < 300 | ≤ 1000 | < 300 | < 300 | 
O=c1c2c(cnn1Cc1ccccc1)c1sc(Cc3ccccn3)nc1n2-c1nccs1 [Compound 411] |  |  |  |  | > 800 |  | > 800 | > 800 | Cell based ATP assay (wild type PKR [2]): No Fit
Cn1c2nc(Cc3ccccn3)sc2c2cnn(CC3CCOCC3)c(=O)c21 [Compound 403] |  |  |  |  | > 800 |  | > 800 | > 800 | Cell based ATP assay (wild type PKR [2]): No Fit
Cn1c2nc(Cc3cc[nH]n3)sc2c2cnn(Cc3cccc4[nH]ncc34)c(=O)c21 [Compound 81] | ≤ 1000 | < 300 | < 300 | < 300 |  |  |  |  | 
Cn1c2nc(Cc3cccc(C#N)c3)sc2c2cnn(Cc3cccc4[nH]ncc34)c(=O)c21 [Compound 99] | ≤ 1000 | 301 to 800 | < 300 | 301 to 800 |  |  |  |  | 
Cn1c2nc(Cc3cc[nH]n3)sc2c2cnn(Cc3ccc4scnc4c3)c(=O)c21 [Compound 237] |  |  |  |  | < 300 | ≤ 1000 | < 300 | < 300 | 
Cn1c2nc(Cc3cc[nH]n3)sc2c2cnn(Cc3ccc4c(c3)OCCO4)c(=O)c21 [Compound 122] | ≤ 1000 | < 300 | < 300 | < 300 |  |  |  |  | 
Cn1ccc(CCn2ncc3c4sc(Cc5cccnc5)nc4n(C)c3c2=O)n1 [Compound 400] |  |  |  |  | > 800 | > 1000 | > 800 | > 800 | 
Cn1c2nc(Cn3ccnc3)sc2c2cnn(Cc3cccc4[nH]ncc34)c(=O)c21 [Compound 277] |  |  |  |  | > 800 | > 1000 | > 800 | 301 to 800 | 
Cn1c2nc(Cc3c[nH]cn3)sc2c2cnn(Cc3cccc4[nH]ncc34)c(=O)c21 [Compound 205] |  |  |  |  | < 300 | ≤ 1000 | < 300 | < 300 | 
COc1cccc(Cc2nc3c(s2)c2cnn(Cc4cccc5[nH]ncc45)c(=O)c2n3C)n1 [Compound 169] | ≤ 1000 | < 300 | < 300 | < 300 |  |  |  |  | 
Cn1c2nc(Cc3cccc4[nH]nnc34)sc2c2cnn(Cc3cccc4[nH]ncc34)c(=O)c21 [Compound 225] |  |  |  |  | < 300 | ≤ 1000 | < 300 | < 300 | 
Cc1nc2c(s1)c1cnn(Cc3cccc(F)c3)c(=O)c1n2C [Compound 6] | > 1000 | > 800 | > 800 | > 800 |  |  |  |  | 
Cn1c2nc(Cc3cc[nH]n3)sc2c2cnn(Cc3cccc4sc(N)nc34)c(=O)c21 [Compound 235] |  |  |  |  | < 300 | ≤ 1000 | < 300 | < 300 | 
Cn1c2nc(Cc3cc[nH]n3)sc2c2cnn(Cc3n[nH]c4cccnc34)c(=O)c21 [Compound 379] |  |  |  |  | < 300 | ≤ 1000 | < 300 | < 300 | 
Cn1c2nc(Cn3cncn3)sc2c2cnn(Cc3cccc4[nH]ncc34)c(=O)c21 [Compound 293] |  |  |  |  | < 300 | ≤ 1000 | 301 to 800 | < 300 | 
Cn1c2nc(Cc3cc[nH]n3)sc2c2cnn(CCc3cscn3)c(=O)c21 [Compound 401] |  |  |  |  | < 300 | ≤ 1000 | < 300 | < 300 | 
